This is an account of results in patent US9688710B2, “Inhibitors of sodium glucose cotransporter 1” (LEXICON PHARMACEUTICALS, INC., priority 2012, dated 2017).

Assay [1] relates to KKay mice. Nature of the assay: Glucose challenge in KKAy diabetic mice (glucose excursion). In kind it is in vivo. The note with it: KKay mice on 45% high fat diet, 1.5 and 4.5 mg/kg once daily, day 22, glucose bolus 2 g/kg 15 hours after dosing. The text has this:
(§1) Twelve week-old male KKay mice were purchased from The Jackson Laboratory (Bar Harbor, Me.). They were switched to 45% high fat diet (HFD; diet D12451i, Research Diets) and housed individually for one week before study. The mice were randomized into the following groups by their HbA1c levels and body weights:
(§2) Mice received either vehicle or Compound C once daily at […] for 36 days. Body weight and food consumption were monitored daily. On day 22, blood was collected before glucose challenge for baseline glucose. Mice were then given a bolus dose of glucose (2 g/kg, 10 mL/kg). Blood was collected at 30, 60 and 120 minutes after glucose challenge to estimate the glucose excursion. Blood glucose was analyzed by Cobas Integra 400 Autoanalyzer (Roche Diagnostics).

The subject of assay [2] is KKay mice. The assay can be described thus: Postprandial tGLP-1 in KKAy diabetic mice. In kind it is in vivo. The note with it: 4.5 mpk group, day 29, 60 minutes after glucose bolus 2 g/kg.
Source text: as §1, §2
On day 29, the mice again received a glucose bolus (2 g/kg, 10 mL/kg). Blood was collected at 60 minutes after glucose challenge and analyzed for tGLP-1. Plasma was prepared by centrifuging blood samples at 1000 rpm for 10 minutes at 4° C. tGPL-1 was analyzed by ELISA (Glucagon-Like Peptide-1 Total ELISA Kit, catalog #EZGLP1T-36K, Millipore, St. Charles, Mo.) according to the protocol recommended by Millipore.

In assay [3] the target is Human sodium/glucose co-transporter type 2 (SGLT2) (Homo sapiens (Human), UniProt P31639). Nature of the assay: In vitro human SGLT2 inhibition assay (14C-AMG uptake). The note with it: HEK293 cells expressing human HA-SGLT2, 14C-AMG uptake. In kind it is cell-based. The gist of the method:
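HEK293 cells stably expressing HA-tagged human SGLT2, seeded overnight, washed into Na+-containing HEPES/Tris uptake buffer with 1 mg/mL BSA, pH 7.3. Compound added, then 14C-AMG (100 nCi); 1-2 h at 37 °C, 5% CO2. Washed cells counted by scintillation for 14C-AMG uptake.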

For assay [4], the target named is Human sodium/glucose co-transporter type 1 (SGLT1) (Homo sapiens (Human), UniProt P13866). Nature of the assay: In vitro human SGLT1 inhibition assay (14C-AMG uptake). It counts as cell-based. The note with it: HEK293 cells expressing human HA-SGLT1, 14C-AMG uptake. Put shortly:
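HEK293 cells stably expressing human HA-tagged SGLT1 (30,000/well, overnight) were washed into Na+-containing uptake buffer (140 mM NaCl, HEPES/Tris, 1 mg/mL BSA, pH 7.3). Cells then received compound plus 100 nCi 14C-AMG for 1–2 h at 37 °C; after washing, AMG uptake was quantified by scintillation counting.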

The subject of assay [5] is KKay mice. The assay can be described thus: HbA1c in KKAy diabetic mice. It counts as in vivo. The note with it: 1.5 and 4.5 mg/kg once daily, day 26.
Source text: as §1, §2
On day 26 after dosing, blood was collected for HbA1c. HbA1c was measured using a meter manufactured by Bayer according to the protocol recommended by Bayer.

As usually defined, the IC50 is the midpoint of a concentration-inhibition curve.

Molecules are shown by their SMILES.

Sequence of Human sodium/glucose co-transporter type 2 (SGLT2) (P31639 whole entry): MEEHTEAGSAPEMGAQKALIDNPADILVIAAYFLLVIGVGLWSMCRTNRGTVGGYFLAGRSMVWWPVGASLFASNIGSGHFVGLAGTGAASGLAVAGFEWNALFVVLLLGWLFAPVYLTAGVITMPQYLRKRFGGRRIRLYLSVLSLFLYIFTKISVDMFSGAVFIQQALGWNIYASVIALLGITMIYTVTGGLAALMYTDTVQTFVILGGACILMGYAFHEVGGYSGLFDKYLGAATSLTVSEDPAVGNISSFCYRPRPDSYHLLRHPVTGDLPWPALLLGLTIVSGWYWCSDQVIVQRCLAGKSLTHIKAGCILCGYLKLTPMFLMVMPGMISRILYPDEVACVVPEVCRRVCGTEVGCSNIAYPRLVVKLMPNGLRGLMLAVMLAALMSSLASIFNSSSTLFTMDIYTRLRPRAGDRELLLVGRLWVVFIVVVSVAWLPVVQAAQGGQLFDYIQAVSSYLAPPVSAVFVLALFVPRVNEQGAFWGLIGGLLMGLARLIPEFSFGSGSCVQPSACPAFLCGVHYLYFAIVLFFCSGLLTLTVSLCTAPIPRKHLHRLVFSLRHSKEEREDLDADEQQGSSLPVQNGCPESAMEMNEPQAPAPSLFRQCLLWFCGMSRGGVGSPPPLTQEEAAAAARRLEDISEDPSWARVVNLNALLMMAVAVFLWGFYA
Sequence of Human sodium/glucose co-transporter type 1 (SGLT1) (P13866 whole entry): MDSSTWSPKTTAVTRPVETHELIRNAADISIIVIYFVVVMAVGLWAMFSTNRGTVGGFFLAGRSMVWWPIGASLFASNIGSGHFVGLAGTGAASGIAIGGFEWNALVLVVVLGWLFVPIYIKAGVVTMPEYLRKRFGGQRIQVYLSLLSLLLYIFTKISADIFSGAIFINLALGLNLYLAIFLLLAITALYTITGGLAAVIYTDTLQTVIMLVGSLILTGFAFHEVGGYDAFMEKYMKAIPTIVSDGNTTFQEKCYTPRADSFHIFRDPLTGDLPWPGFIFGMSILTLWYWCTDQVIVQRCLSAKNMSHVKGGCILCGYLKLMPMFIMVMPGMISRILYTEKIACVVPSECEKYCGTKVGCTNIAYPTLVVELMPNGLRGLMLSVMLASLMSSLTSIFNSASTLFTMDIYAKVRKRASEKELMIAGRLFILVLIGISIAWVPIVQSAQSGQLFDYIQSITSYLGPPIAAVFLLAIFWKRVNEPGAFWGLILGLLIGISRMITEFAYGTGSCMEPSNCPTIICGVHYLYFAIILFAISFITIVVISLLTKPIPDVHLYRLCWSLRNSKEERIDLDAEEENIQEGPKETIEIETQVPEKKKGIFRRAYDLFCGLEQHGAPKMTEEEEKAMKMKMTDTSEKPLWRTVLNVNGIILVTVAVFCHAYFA

Turning to `CS[C@H]1O[C@@H](c2ccc(C)c(Cc3ccc(OCCCNC(C)(C)CO)cc3)c2)[C@H](O)[C@@H](O)[C@@H]1O` [(2S,3R,4R,5S,6R)-2-(3-(4-(3-((1-hydroxy-2-methylpropan-2-yl)amino)propoxy)benzyl)-4-methylphenyl)-6-(methylthio)tetrahydro-2H-pyran-3,4,5-triol], in assay [1], the “glucose excursion after glucose challenge” value is recorded as “dose-dependent decrease in glucose excursion”. The “postprandial tGLP-1” value in assay [2] was “significant increase in postprandial tGLP-1”. For the same compound, the IC50 in assay [3] and in assay [4] was below 10 nM throughout. The HbA1c result in assay [5] is listed as “significant, dose-dependent reduction in HbA1c”.

`CS[C@H]1O[C@@H](c2ccc(Cl)c(Cc3ccc(OCC(=O)NC(C)(C)C(=O)N4CCN(C)CC4)cc3)c2)[C@H](O)[C@@H](O)[C@@H]1O` [2-(4-(2-chloro-5-((2S,3R,4R,5S,6R)-3,4,5-trihydroxy-6-(methylthio)tetrahydro-2H-pyran-2-yl)benzyl)phenoxy)-N-(2-methyl-1-(4-methylpiperazin-1-yl)-1-oxopropan-2-yl)acetamide]: the results for the IC50 in assay [3] and in assay [4] were below 10 nM and below 100 nM, respectively.

Take `CS[C@H]1O[C@@H](c2ccc(C)c(Cc3ccc(CCCC(=O)NC(C)(C)CO)cc3)c2)[C@H](O)[C@@H](O)[C@@H]1O` [N-(1-hydroxy-2-methylpropan-2-yl)-4-(4-(2-methyl-5-((2S,3R,4R,5S,6R)-3,4,5-trihydroxy-6-(methylthio)tetrahydro-2H-pyran-2-yl)benzyl)phenyl)butanamide]: the half-inhibitory concentration (IC50) in assay [3] and in assay [4] was below 10 nM each time.

In the case of `CS[C@H]1O[C@@H](c2ccc(C)c(Cc3ccc(/C=C/C[C@H](N)C(=O)O)cc3)c2)[C@H](O)[C@@H](O)[C@@H]1O` [(S,E)-2-amino-5-(4-(2-methyl-5-((2S,3R,4R,5S,6R)-3,4,5-trihydroxy-6-(methylthio)tetrahydro-2H-pyran-2-yl)benzyl)phenyl)pent-4-enoic acid], the IC50 was below 10 nM in assay [3] and below 100 nM in assay [4].

Consider `CS[C@H]1O[C@@H](c2ccc(C)c(Cc3ccc(CCCCNC(=O)NC(C)(C)C(N)=O)cc3)c2)[C@H](O)[C@@H](O)[C@@H]1O` [2-methyl-2-(3-(4-(4-(2-methyl-5-((2S,3R,4R,5S,6R)-3,4,5-trihydroxy-6-(methylthio)tetrahydro-2H-pyran-2-yl)benzyl)phenyl)butyl)ureido)propanamide], for which the half-inhibitory concentration (IC50) in assay [3] and in assay [4] was below 10 nM in each case.

`CS[C@H]1O[C@@H](c2ccc(C)c(Cc3ccc(CCCCNCC(C)(C)C(N)=O)cc3)c2)[C@H](O)[C@@H](O)[C@@H]1O` [2,2-dimethyl-3-((4-(4-(2-methyl-5-((3R,4R,5S,6R)-3,4,5-trihydroxy-6-(methylthio)tetrahydro-2H-pyran-2-yl)benzyl)phenyl)butyl)amino)propanamide]: the IC50 in assay [3] and in assay [4] was below 10 nM in each case.

Consider `CS[C@H]1O[C@@H](c2ccc(C)c(Cc3ccc(/C=C/CCC(=O)NC(C)(C)C(=O)N4CCN(C)CC4)cc3)c2)[C@H](O)[C@@H](O)[C@@H]1O` [(E)-N-(2-methyl-1-(4-methylpiperazin-1-yl)-1-oxopropan-2-yl)-5-(4-(2-methyl-5-((2S,3R,4R,5S,6R)-3,4,5-trihydroxy-6-(methylthio)tetrahydro-2H-pyran-2-yl)benzyl)phenyl)pent-4-enamide], for which the 50% inhibitory concentration (IC50) in assay [3] and in assay [4] was below 10 nM in each case.

For `CS[C@H]1O[C@@H](c2ccc(C)c(Cc3ccc(CCCCCNC(=O)NC(C)(C)CO)cc3)c2)[C@H](O)[C@@H](O)[C@@H]1O` [1-(1-hydroxy-2-methylpropan-2-yl)-3-(5-(4-(2-methyl-5-((2S,3R,4R,5S,6R)-3,4,5-trihydroxy-6-(methylthio)tetrahydro-2H-pyran-2-yl)benzyl)phenyl)pentyl)urea], the 50% inhibitory concentration (IC50) in assay [3] was below 10 nM; in assay [4], below 100 nM.

For `CS[C@H]1O[C@@H](c2ccc(C)c(Cc3ccc(CCCCC(=O)NCCCC[C@H](N)C(=O)O)cc3)c2)[C@H](O)[C@@H](O)[C@@H]1O` [(S)-2-amino-6-(5-(4-(2-methyl-5-((2S,3R,4R,5S,6R)-3,4,5-trihydroxy-6-(methylthio)tetrahydro-2H-pyran-2-yl)benzyl)phenyl)pentanamido)hexanoic acid], the figures for the IC50 in assay [3] and in assay [4] were below 10 nM and below 100 nM, respectively.
